# Patent US20250177566A1, “USE OF CHEMICAL EPIGENETIC MODIFIERS TO MODULATE GENE EXPRESSION” (The University of North Carolina at Chapel Hill, priority 2022, published 2025)
# Legend:
# BRD4 = molecular target: T1, BRD4 (Homo sapiens, UniProt O60885+P62942); assay: BRD4 ChIP-qPCR near the CXCR4 transcription start site, HCT116; format: cell-based; settings: FIG. 8, 25 nM, 24 hrs
# T1 construct: achieved via the accumulation of endogenous epigenetic machinery at the designed gRNA targeted gene locus; endogenous in cells; host or cells: HCT116 cells stably expressing dCas9 and MS2-FKBP*x2, transfected with CXCR4 or NT gRNA
# T1 sequence (P62942 2-108 limits assumed, other chains not shown): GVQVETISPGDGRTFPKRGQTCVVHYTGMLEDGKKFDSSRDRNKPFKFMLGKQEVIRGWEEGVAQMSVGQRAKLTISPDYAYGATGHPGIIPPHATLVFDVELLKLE
# Procedure: FIGS. 8A-8B show alamarBlue cell viability assays. HEK293T or HCT116 cells were plated in 96-well plates 24 hrs before chemical treatment of 0.001, 0.01, 0.1, 1, 10, 50, and 100 μM CEM207 was added. Another group of cells were treated with all concentrations of CEM207 mentioned above along with 200 nM CEM87 in all samples. After 4 days of chemical exposure, cell growth was measured by fluorescence. […] HCT116 cells were stably infected with dCas9 and MS2-FKBP*x2 constructs and transfected with CXCR4 gRNA. After 24 hrs of 25 nM CEM207 treatment, ChIP-qPCR was performed at different base pair distances from the transcription start site of CXCR4 gene. […] Error bars represent the standard deviation.
# Given that SLF*-CEMa facilitates gene activation via recruitment of BET proteins including BRD4, BRD4 enrichment at a specific targeted gene locus was investigated to further validate the mechanism of CEM207. Based on the alamarBlue cell viability assay performed with HEK293T and HCT116 cells, CEM207 can have different toxicity effects on different cell lines after 4 days of exposure. […] The signal change was measured between samples when only CEM207 or gRNA are present and those where both are present. […] To determine outlier significance, a “z-score” distribution was calculated by taking the scaled means of the x- and y-axis values and calculated P values for each point within this distribution. […]
# [1] = test system: rAAV2 transgene expression (firefly luciferase); assay: rAAV2 SLF* CEM system dual luciferase assay, HEK293T Renilla, multiplicity of infection; format: cell-based, human; settings: FIGS. 14B and 14C; 0, 10 or 100 nM CEM207; increasing vg/cell
# Text: (§1) It was investigated whether rAAV transgene expression can be epigenetically controlled. Rapid screening of CEM technology can be performed with dual liucierase assays. (FIG. 10). Briefly, a cell line can be stably transduced with Ef1a-Renilla, enabling normalization to cell number. The cells are then either infected with AAV or tranfected with plasmid and dosed with a chemical epigenetic modifier. Luminescence can then be measured with the Dual Lucieferase Reporter, commercially available from Promega. This approach is described in more detail in the methods section of the example. Gene activation can be described as normalized luciferase or fold change. A measure of total gene expression can be calculated by
# Next, it was determined whether SLF*CEMs can regulate AAV. The cassette shown in FIG. 14A was inserted into rAAV2 and infected into HEK293T Renilla. […] Next, it was explored whether the cassette was truly modular by varying the promoter while retaining SLF* CEM successful activation of rAAV2. […]
# Day 4 (72 h): Data was obtained using the Promega Dula Luciferase Reporter (DLR) assay: first, the cells were washed with 100 μL of PBS/well dropwise followed by 20 μL of 1× passive lysis buffer (PLB) added to each well. The cells were incubated for 15 minutes in PLB and the assay ran on pheraSTAR microplate reader with 100 μL of each DLR reagent, gain=3600.
# CXCR4 protein = assay: CXCR4 cell membrane protein expression in HCT116 (APC anti-CXCR4 antibody, flow cytometry); format: cell-based, human; settings: for fold change, CXCR4 protein (CXCR4 gRNA vs NT gRNA): FIG. 3E, 7B-7D
# Procedure: In addition, the change in CXCR4 protein expression was evaluated following CEM207 treatment at three different concentrations. CEM207 was chosen over CEM203 because of the lower concentration needed to reach a similar peak CXCR4 mRNA activation level. An APC anti-CXCR4 antibody was used to assess cell membrane CXCR4 protein expression via flow cytometry in dCas9 and MS2-FKBP*x2 stably infected HCT116 cells (FIG. 3E and FIGS. 7B-7D). CXCR4 protein levels were determined at 24, 48, and 72 hrs time points for each of the different concentrations of CEM207. […] Based on this protein expression data, it was concluded that the SLF*-CEMa technology can achieve effective gene-specific, dose-dependent activation at the mRNA and protein level.
# [2] = test system: AAV transgene expression (firefly luciferase); assay: AAV regulation with first generation CEM, dual luciferase assay, HCT116 Renilla; format: cell-based, human; settings: FIG. 12, 50, 200, 500, 1000 nM
# Text: as §1
# Preliminary regulation of AAV with first generation CEMs is depicted in FIG. 11A. The prototype system is autogenous, saving casssette space. (FIG. 11B). […] Preliminary regulation of AAV with first generation CEMs in HEK293T Renilla cells using the cassette in FIG. 11B results are shown in FIG. 13, with multiplicity of infection (MOI)=number of viral genomes/cell.
SMILES,"fold change, BRD4 ChIP-qPCR (CXCR4 gRNA vs NT gRNA) (BRD4; +40 bp from CXCR4 TSS)","fold change, BRD4 ChIP-qPCR (CXCR4 gRNA vs NT gRNA) (BRD4; +300 bp from CXCR4 TSS)",activation of rAAV2 luciferase expression with viral titer escalation [1],"time after CEM treatment of highest CXCR4 protein expression (CXCR4 protein; 24, 48, 72 hrs time points)","fold change, CXCR4 protein (CXCR4 gRNA vs NT gRNA) (CXCR4 protein; 24 h time point, 5 nM)","fold change, CXCR4 protein (CXCR4 gRNA vs NT gRNA) (CXCR4 protein; 24 h time point, 25 nM)","fold change, CXCR4 protein (CXCR4 gRNA vs NT gRNA) (CXCR4 protein; 24 h time point, 50 nM)","fold change, CXCR4 protein (CXCR4 gRNA vs NT gRNA) (CXCR4 protein; 48 h time point, 5 nM)","fold change, CXCR4 protein (CXCR4 gRNA vs NT gRNA) (CXCR4 protein; 48 h time point, 25 nM)","fold change, CXCR4 protein (CXCR4 gRNA vs NT gRNA) (CXCR4 protein; 48 h time point, 50 nM)","fold change, CXCR4 protein (CXCR4 gRNA vs NT gRNA) (CXCR4 protein; 72 h time point, 5 nM)","fold change, CXCR4 protein (CXCR4 gRNA vs NT gRNA) (CXCR4 protein; 72 h time point, 25 nM)","fold change, CXCR4 protein (CXCR4 gRNA vs NT gRNA) (CXCR4 protein; 72 h time point, 50 nM)",concentration of maximum CXCR4 cell membrane protein expression (CXCR4 protein; remained the same at 50 nM),"luminescence, fold change compared to no treatment [2]"
"CC[C@H](C(=O)N1CCCC[C@H]1C(=O)O[C@H](CCc1ccc(OC)c(OC)c1)c1cccc(OCC(=O)NCCOCCOCCNC(=O)C[C@@H]2N=C(c3ccc(Cl)cc3)c3c(sc(C)c3C)-n3c(C)nnc32)c1)c1cc(OC)c(OC)c(OC)c1 [CEM207, (R)-1-(3-((14-((S)-4-(4-Chlorophenyl)-2,3,9-trimethyl-6H-thieno[3,2-f][1,2,4]triazolo[4,3-a][1,4]diazepin-6-yl)-2,13-dioxo-6,9-dioxa-3,12-diazatetradecyl)oxy)phenyl)-3-(3,4-dimethoxyphenyl) propyl(S)-1-((S)-2-(3,4,5-trimethoxyphenyl)butanoyl) piperidine-2-carboxylate]",2.7 fold,1.2 fold,compatible with viral titer escalation,48 h,2.4 fold,4.6 fold,4.3 fold,2.4 fold,4.9 fold,5.8 fold,1.7 fold,4.2 fold,3.8 fold,25 nM,
"COc1ccc2c(c1)C(c1ccc(Cl)cc1)=N[C@@H](CC(=O)NCc1cn(CCOCCOCCOCCNC(=O)CCSCCC[C@@H]3/C=C(\C)C[C@H](C)C[C@H](OC)[C@H]4O[C@@](O)(C(=O)C(=O)N5CCCC[C@H]5C(=O)O[C@H](/C(C)=C/[C@@H]5CC[C@@H](O)[C@H](OC)C5)[C@H](C)[C@@H](O)CC3=O)[C@H](C)C[C@@H]4OC)nn1)c1nnc(C)n1-2 [CEM87, reference compound]",,,,,,,,,,,,,,,dose dependent increase in luminscence
